This passage reports IC50 results from patent US9682961B2, “Quinazoline derivative” (CARNA BIOSCIENCES, INC., priority 2013, dated 2017).

pIC50: −log10 of the molar value. Bounds are passed on as bounds.

The experiment deals with Wnt/β-catenin signaling pathway. Put plainly: TCF-luciferase reporter gene assay (Wnt-3a stimulated HEK 293 cells). The format is cell-based. Conditions: Homo sapiens, HEK293, Wnt-3a stimulation, read-out: Inhibitory activity against the Wnt/β-catenin signaling pathway. As to the method:
Evaluation of inhibitory activity of the compounds of the present invention against the Wnt/β-catenin signaling pathway was performed by evaluating the inhibitory activity of the compounds of the present invention against the Wnt/β-catenin signaling pathway activated by the Wnt-3a ligand using a commercially available TCF-luciferase reporter gene assay system.
In a T75 flask, HEK 293 cells (ATCC No. CRL-1573) were added to a DMEM medium (manufactured by NACALAI TESQUE, INC., No. 08459-35) supplemented with 10% FBS (AusGeneX PTY LTD.) and 1% Penicillin/Streptomycin (NACALAI TESQUE, INC.). The cells in the flask were cultured in a 5% CO2 incubator.
The cultured HEK 293 cells were diluted with a DMEM medium supplemented with only 10% FBS so as to have a cell concentration of 2×10^5 cells/mL, and 100 μL each of the diluted cells were seeded into respective wells of 96-well plates (PerkinElmer Inc., ViewPlate No. 6005181), followed by culturing overnight in the 5% CO2 incubator. To an OptiMEM medium (Invitrogen® No. 11058), pGL4.49 [luc2p/TCF-LEF-RE/Hygro] plasmid DNA (Promega Corporation) and FuGENE® HD (Promega No. E2691) were added so as to have concentrations of 1 μg/mL and 3 μg/mL, respectively, to prepare a transfection solution as described in the protocol attached to the reagent. To the respective wells containing the HEK 293 cells cultured overnight, 100 μL each of the transfection solution was added gently, followed by culturing overnight in the 5% CO2 incubator to perform transfection.
To a DMEM medium, 0.5% charcoal/dextran treated Fetal Bovine Serum (Thermo Scientific No. SH30068.02) and LiCl (Sigma-Aldrich No. L9650) were added to prepare a LiCl-containing medium (final concentration of LiCl: 10 mM). The medium in the respective wells of the HEK 293 cells cultured overnight and transfected with a reporter gene was removed by decantation. The LiCl-containing medium (90 μL) was added gently to each well, followed by culturing overnight in the 5% CO2 incubator.
A DMSO stock solution of the compound to be tested was diluted 100-fold with a LiCl-containing medium so as to prepare a solution of the compound to be tested, which is 10 times the test concentration. Further, Recombinant Mouse Wnt-3a (R&D Systems, Inc. #1324-WN) was dissolved in a 0.1% BSA-PBA solution so as to have a concentration of 40 μg/mL, and the resultant solution was diluted with a LiCl-containing medium so as to have a concentration of 100 ng/mL, to prepare a Wnt-3a solution. To each well of the HEK 293 cells cultured overnight in the LiCl-containing medium, 10 μL each of the solution of the compound to be tested was added, followed by culturing in the 5% CO2 incubator for 2 hours (the final concentration of the compound to be tested: 3-0.03 μM). Thereafter, 10 μL each of the Wnt-3a solution was added to the respective wells, followed by further culturing for 5 hours.
Using ONE-Glo™ Luciferase Assay System (Promega Corporation, No. E6110), the luciferase activity of the cells in the wells was measured by a microplate reader (Synergy H1, BioTek Instruments, Inc.) An IC50 value was calculated from the luminescence intensity of each compound concentration, supposing that the luminescence intensity of a group with no addition of the compound and with Wnt-3a stimulation was 100%, and that the luminescence intensity of a group with no addition of the compound and with no Wnt-3a stimulation was 0%.
Background: A reporter such as luciferase makes a cellular process visible.

For the compound `C[C@H](O)c1nc2ccc(Nc3ncc4cccc(O[C@H]5CC[C@@H](O)CC5)c4n3)cc2[nH]1` [Example 27, cis-4-{[2-({2-[(S)-1-hydroxyethyl]-1H-benzo[d]imidazol-6-yl}amino)quinazolin-8-yl]oxy}cyclohexanol], the pIC50 is 6.00 to 6.52. On to `Cc1nc2c(C)cc(Nc3ncc4cccc(O[C@H]5CC[C@@H](O)CC5)c4n3)cc2[nH]1` [Example 20, cis-4-({2-[(2,4-dimethyl-1H-benzo[d]imidazol-6-yl)amino]quinazolin-8-yl}oxy)cyclohexanol], for which the pIC50 was 6.00 to 6.52.

With `O[C@H]1CC[C@@H](Oc2cccc3cnc(Nc4ccc5nc(C(F)(F)F)[nH]c5c4)nc23)CC1` [Example 26, cis-4-((2-{[2-(trifluoromethyl)-1H-benzo[d]imidazol-6-yl]amino}quinazolin-8-yl)oxy)cyclohexanol], the pIC50 is 5.52 to 6.00. `COCc1nc2ccc(Nc3ncc4cccc(O[C@H]5CC[C@@H](O)CC5)c4n3)cc2[nH]1` [Example 25, cis-4-[(2-{[2-(methoxymethyl)-1H-benzo[d]imidazol-6-yl]amino}quinazolin-8-yl)oxy]cyclohexanol]: the pIC50 was 6.00 to 6.52. For `O[C@H]1CC[C@@H](Oc2cccc3cnc(Nc4ccnc5cc(F)ccc45)nc23)CC1` [Example 45, cis-4-({2-[(7-fluoroquinolin-4-yl)amino]quinazolin-8-yl}oxy)cyclohexanol], the pIC50 was 6.00 to 6.52. `O[C@H]1CC[C@@H](Oc2cc(F)cc3cnc(Nc4ccc5nc[nH]c5c4)nc23)CC1` [Example 32, cis-4-({2-[(1H-benzo[d]imidazol-6-yl)amino]-6-fluoroquinazolin-8-yl}oxy)cyclohexanol]: the pIC50 was 6.00 to 6.52. For `COc1ccc2c(Nc3ncc4cccc(O[C@H]5CC[C@@H](O)CC5)c4n3)ccnc2c1` [Example 46, cis-4-({2-[(7-methoxyquinolin-4-yl)amino]quinazolin-8-yl}oxy)cyclohexanol], the pIC50 was 6.00 to 6.52. `O[C@H]1CC[C@@H](Oc2c(Br)ccc3cnc(Nc4ccc5nc[nH]c5c4)nc23)CC1` [Example 31]: the pIC50 was above 6.52. On to `O[C@H]1CC[C@@H](Oc2c(F)ccc3cnc(Nc4ccc5ncccc5c4)nc23)CC1` [Example 43, cis-4-{[7-fluoro-2-(quinolin-6-ylamino)quinazolin-8-yl]oxy}cyclohexanol], for which the pIC50 is above 6.52.

Turning to `Cc1nc2c(Br)cc(Nc3ncc4cccc(O[C@H]5CC[C@@H](O)CC5)c4n3)cc2[nH]1` [Example 19, cis-4-({2-[(4-bromo-2-methyl-1H-benzo[d]imidazol-6-yl)amino]quinazolin-8-yl}oxy)cyclohexanol], the pIC50 was 5.52 to 6.00. For `OCc1n[nH]c2cc(Nc3ncc4ccc(F)c(O[C@H]5CC[C@@H](O)CC5)c4n3)ccc12` [Example 44, cis-4-[(7-fluoro-2-{[3-(hydroxymethyl)-1H-indazol-6-yl]amino}quinazolin-8-yl)oxy]cyclohexanol], the pIC50 is above 6.52. With `OCc1cc(Nc2ncc3cccc(O[C@H]4CC[C@@H](O)CC4)c3n2)cc2[nH]cnc12` [Example 29, cis-4-[(2-{[4-(hydroxymethyl)-1H-benzo[d]imidazol-6-yl]amino}quinazolin-8-yl)oxy]cyclohexanol] the figure was above 6.52. Take `O[C@H]1CC[C@@H](Oc2cccc3cnc(Nc4ccc5[nH]c(CN6CCCC6)nc5c4)nc23)CC1` [Example 13, cis-4-[(2-{[2-(pyrrolidin-1-ylmethyl)-1H-benzo[d]imidazol-5-yl]amino}quinazolin-8-yl)oxy]cyclohexanol]: the pIC50 was above 6.52. Take `Cc1ccc2cnc(Nc3ccc4nc[nH]c4c3)nc2c1O[C@H]1CC[C@@H](O)CC1` [Example 17, cis-4-({2-[(1H-benzo[d]imidazol-6-yl)amino]-7-methylquinazolin-8-yl}oxy)cyclohexanol]: the pIC50 is 6.00 to 6.52.

Turning to `O[C@H]1CC[C@@H](Oc2cccc3cnc(Nc4ccnc5ccccc45)nc23)CC1` [Example 37, cis-4-{[2-(quinolin-4-ylamino)quinazolin-8-yl]oxy}cyclohexanol], the pIC50 is above 6.52. In the case of `O[C@H]1CC[C@@H](Oc2cccc3cnc(Nc4ccc5ncccc5c4)nc23)CC1` [Example 35, cis-4-{[2-(quinolin-6-ylamino)quinazolin-8-yl]oxy}cyclohexanol], the pIC50 is 6.00 to 6.52. As to `Cc1ccc2cc(Nc3ncc4cccc(O[C@H]5CC[C@@H](O)CC5)c4n3)ccc2n1` [Example 38, cis-4-({2-[(2-methylquinolin-6-yl)amino]quinazolin-8-yl}oxy)cyclohexanol], the pIC50 is 6.00 to 6.52.

Consider `O[C@H]1CC[C@@H](Oc2cccc3cnc(Nc4ccc5scnc5c4)nc23)CC1` [Example 36, cis-4-{[2-(benzo[d]thiazol-5-ylamino)quinazolin-8-yl]oxy}cyclohexanol], for which the pIC50 is above 6.52.

With `Cc1cc2nc[nH]c2cc1Nc1ncc2cccc(O[C@H]3CC[C@@H](O)CC3)c2n1` [Example 30, cis-4-({2-[(5-methyl-1H-benzo[d]imidazol-6-yl)amino]quinazolin-8-yl}oxy)cyclohexanol], the pIC50 is 6.00 to 6.52. In the case of `O[C@H]1CC[C@@H](Oc2cccc3cnc(Nc4ccc5cnccc5c4)nc23)CC1` [Example 39, cis-4-{[2-(isoquinolin-6-ylamino)quinazolin-8-yl]oxy}cyclohexanol], the pIC50 was 6.00 to 6.52.

As to `O[C@H]1CC[C@@H](Oc2cccc3cnc(Nc4cccc5cnccc45)nc23)CC1` [Example 41, cis-4-{[2-(isoquinolin-5-ylamino)quinazolin-8-yl]oxy}cyclohexanol], the pIC50 was 6.00 to 6.52. For `OCc1nc2cc(Nc3ncc4cccc(O[C@H]5CC[C@@H](O)CC5)c4n3)ccc2[nH]1` [Example 14, cis-4-[(2-{[2-(hydroxymethyl)-1H-benzo[d]imidazol-5-yl]amino}quinazolin-8-yl)oxy]cyclohexanol], the pIC50 is 6.00 to 6.52. As for `O[C@H]1CC[C@@H](Oc2c(F)ccc3cnc(Nc4ccc5ncsc5c4)nc23)CC1` [Example 42, cis-4-{[2-(benzo[d]thiazol-6-ylamino)-7-fluoroquinazolin-8-yl]oxy}cyclohexanol], the pIC50 is above 6.52.

Take `O[C@H]1CC[C@@H](Oc2cccc3cnc(Nc4ccc5ccncc5c4)nc23)CC1` [Example 40, cis-4-{[2-(isoquinolin-7-ylamino)quinazolin-8-yl]oxy}cyclohexanol]: the pIC50 was 5.52 to 6.00.

Regarding `Cc1nc2ccc(Nc3ncc4ccc(Br)c(O[C@H]5CC[C@@H](O)CC5)c4n3)cc2[nH]1` [Example 18, cis-4-({7-bromo-2-[(2-methyl-1H-benzo[d]imidazol-6-yl)amino]quinazolin-8-yl}oxy)cyclohexanol], the pIC50 is 6.00 to 6.52.
